{"source": "patent US20040044304A1", "about": "“Local drug delivery using photosensitizer-mediated and electromagnetic radiation enhanced vascular permeability” (priority 2002, published 2004)", "system": "vascular structures in the dorsal window chamber", "assay_type": "in vivo, mice of strain C3H", "conditions": "MRV6401 0.05 mg/kg i.v., red 660 nm-680 nm", "text": "Male mice of strain C3H (sourced from The Jackson Laboratory, 600 Main Street, Bar Harbor, Me. 04609, USA) weighing between 28-30 grams were surgically implanted with titanium back-pack window chambers in a similar manner to that described in Example 2. A chamber was considered suitable for subsequent studies if microscopic examination of the preparation met the same criteria as those described in Example 2. The intra-vital microscopic studies were undertaken on unsedated animals held in the same Plexiglass tube assembly as that described in Example 2. The intra-vital microscopy was also performed using the same Leitz Dialux 22 microscope fitted with the same objective lenses, and mercury lamp trans- and epi-illumination sources. However, for the studies described in Example 3, the irradiation source was not a DD4 laser, but rather, activation of the photosensitizers was undertaken using narrow band filtered light from the mercury lamp epi-illumination source. Two different wavelength bands were used to activate the photosensitizers, namely green or red light (see Table 5 below). These wavelengths were obtained by use of filter cubes placed in a Leitz Ploemopak illumination system (NcBain Instruments, Inc., 9601 […] Avenue, Chatsworth, Calif., 91311, USA) fitted to the Leitz Dialux 22 microscope. For activation using green light epi-illumination (530 nm-560 nm) the BP 530-560 band pass excitation filter of the Leitz Ploemopak N2 cube (Cat. No. 513-609, E. Leitz Inc., Rockleigh, N.J., 07647, USA) was used. For activation using red light epi-illumination (660 nm-680 nm) a 670DF20 band pass filter (Cat. No., XF1028, Omega Optical Co., Brattleboro, Vt., 05302, USA) fitted in a Leitz Ploemopak cube was used. In all cases, the activation of the photosensitizer was performed in a defined region that was smaller than the total field of tissue contained within the window chamber. The total mouse dorsal tissue contained within the window chambers was a circle of 1.0 cm diameter, corresponding to a total area of approximately 0.785 cm^2. The illumination field of the activating light was a circle of 0.225 cm diameter, corresponding to a total area of approximately 0.040 cm^2. Thus, approximately 5% of the total area of the chamber was directly illuminated. Mice bearing a dorsal window chamber were placed in the Plexiglass restrainer on the microscope stage for pre-treatment evaluation of the vascular structures. Prior to photosensitizer administration, the architecture of the vascular structures in the entire window chamber in all mice was examined using 410 nm filtered blue light from the mercury trans-illumination source of the intra-vital microscope, and the images which were generated were recorded on video tape for subsequent evaluation. The methods for imaging and recording were as described in Example 2. Briefly, the imaging source was a […] mercury arc lamp (Type 307-143.004 from Ernst Leitz Wetzlar GmBH, Germany) which was powered by an HBO 100 power supply (LEP Ltd., Scarsdale, N.Y.). The output from this source was filtered using a #H43157 interference filter (Edmund Scientific, 101 East Gloucester Pike, Barrington, N.J., 08007-1380), to produce a beam of 410 nm light. Typically, the power density of the imaging light was less than 0.6 […]^2. Two or three fields in each chamber were designated as fields of interest and their location recorded for post-treatment evaluation. These fields were chosen such that they were not adjacent to each other, and one of these fields was chosen so that it was within the region of the chamber that was to receive the activating light illumination. Following identification, recording and designation of the fields of interest, mice were injected with either the photosensitizer […] Medical Technologies, 336 Bollay Drive, Santa Barbara, Calif., 93117) formulated in egg yolk phospholipid ([…] Polar Lipids, Inc., 700 Industrial Park Avenue, Alabaster, Ala., 35007), the photosensitizer […]", "key": {"[1]": {"conditions": "animal #10, 12 J/cm^2, probe 6 min post light irradiation"}, "[2]": {"conditions": "animal #13, 8 J/cm^2, probe administered 24 hr post light irradiation"}}, "note": "Like-named read-outs stand apart in the source and are kept apart here."}
{"smiles": "C=Cc1c(C)c2[n]3c1=CC1=NC(=Cc4c(C)c5c([n]4[In]3[Cl])C(=C3N=C(C=2)[C@@H](C)[C@@H]3CCC(=O)OC)CC5=O)C(CC)=C1C", "note": "[MV6401, indium methyl pyropheophorbide]", "values": [{"measurement": "TRITC-Dextran in tissue and cells in regions outside the treatment field at 24 hr time point", "setting": "animal #8, 12 J/cm^2, 155 kD probe 10 min post light irradiation", "result": "no significant fluorescence from TRITC-Dextran"}, {"measurement": "Leakage of 155 kD TRITC-Dextran in the treatment field at 24 hr time point", "setting": "animal #8, 12 J/cm^2, probe 10 min post light irradiation", "result": "significant leakage in region 2"}, {"measurement": "Leakage of secondary probe 150 kD FITC-Dextran from vessels in the treatment field, 20 min post probe", "setting": "animal #8, 12 J/cm^2, probe administered 24 hr post light irradiation", "result": "leakage of FITC from vessels in the treated region 2"}, {"measurement": "Leakage of secondary probe 150 kD FITC-Dextran from vessels outside the treatment field, 20 min post probe", "setting": "animal #8, 12 J/cm^2, probe administered 24 hr post light irradiation, 0.05 mg/kg", "result": "some minimal leakage from the vessels in region 1"}, {"measurement": "150 kD FITC-Dextran in tissue and cells surrounding vessels (regions 1 treated and 3) at 24 hr", "setting": "animal #10, 12 J/cm^2", "result": "pattern was apparent at the 2 hr time point, and at the 24 hr time point there was FITC-Dextran present at high levels"}, {"measurement": "Leakage of 150 kD FITC-Dextran from the treated vessels at 1 hr post probe administration", "setting": "[1]", "result": "with significant leakage apparent"}, {"measurement": "Leakage of 150 kD FITC-Dextran from vessels outside the treatment field at 1 hr post probe administration", "setting": "[1]", "result": "from the treated vessels in region 1, some minor leakage from vessels in region 3 and no leakage from vessels in region"}, {"measurement": "2,000 kD FITC-Dextran leakage in tissue and cells outside the treatment field at 24 hr", "setting": "animal #11, 12 J/cm^2", "result": "FITC-Dextran uptake in tissues and cells in this region. The tissue and cells in regions 2 and 3 showed some minor"}, {"measurement": "Leakage of 2,000 kD FITC-Dextran from vessels outside the treatment field at 1 hr", "setting": "animal #11, 12 J/cm^2, probe 19 min post light irradiation", "result": "no leakage from vessels in regions 2 and 3"}, {"measurement": "Leakage of 2,000 kD FITC-Dextran from vessels outside the treatment field at 1 hr", "setting": "animal #12, 8 J/cm^2, probe 3 min post light irradiation", "result": "no leakage from vessels in regions 2 and 3"}, {"measurement": "Leakage of secondary probe 155 kD TRITC-Dextran from vessels in the treatment field", "setting": "animal #12, 8 J/cm^2, probe administered 24 hr post light irradiation", "result": "significant on-going leakage from vessels in region 1"}, {"measurement": "Leakage of secondary probe 2,000 kD FITC-Dextran from vessels in the treatment field", "setting": "[2]", "result": "significant on-going leakage from vessels in region 1"}, {"measurement": "Leakage of secondary probe 2,000 kD FITC-Dextran from vessels outside the treatment field", "setting": "[2]", "result": "no evidence of on-going leakage"}]}
